Measured values: US11679140B2, “Prevention and/or treatment of hearing loss or impairment” (INSTITUT PASTEUR, priority 2015, dated 2023)
Entries after “also recorded” stand apart in the source; their conditions may differ.

Columns and labels:
Pjvk−/− mice = assay: Auditory brainstem responses (ABR) in Pjvk−/− mice; assay type: in vivo, mouse; conditions: for recovery of ABR wave I latency and ABR interwave I-IV: treated Pjvk−/− mice
Procedure: (§1) Auditory tests were performed in an anechoic room. They consisted of distortion-product otoacoustic emissions (DPOAEs), auditory brainstem responses (ABRs), electrically-evoked brainstem responses (EEBRs), and cochlear potentials. Mice were anesthetized with an intraperitoneal injection of a ketamine and levomepromazin mixture (100 mg/kg: 5 mg/kg) and their core temperature was kept at 37° C. with the help of a servo-controlled heating pad. The DPOAE at frequency 2f1-f2 was recorded in response to two equal level primary tones, f1 and f2, with f2/f1=1.20 (CubeDis system, Mimosa Acoustics; ER10B microphone, Etymotic Res.). Frequency f2 was swept at 1/10th octave steps from 4 to 20 kHz, and DPOAE level was plotted against frequency f2 (primary tone levels increased from 20 to 70 dB SPL in 10 dB steps, then to 75 dB SPL). DPOAE threshold was defined as the smallest primary level giving rise to a detectable DPOAE. ABRs in response to calibrated short tone bursts in the 5-40 kHz range (repetition rate 17/s) were derived from the synchronous averaging of electroencephalograms recorded between subcutaneous stainless steel electrodes at the vertex and ipsilateral mastoid, with the help of a standard digital averaging system (CED1401+). A hundred responses to the tone bursts were averaged except within 10 dB of the ABR threshold (defined as the smallest tone-burst level giving rise to at least one repeatable wave above noise background level, 150 nV in an anesthetized animal), for which 300 tone bursts were used. Once ABR thresholds had been assessed, ABRs in response to 95 and 105 dB SPL tone bursts (100 averages) were collected for analysis of suprathreshold ABR waveforms, amplitudes and latencies. Controlled sound exposure was applied with the same acoustic probe used for ABRs without moving the sound system, so that pre- and post-exposure ABRs shared the same calibration. Intense stimuli were the same tone-bursts used for ABR measurements at 105 dB SPL, presented 1,000 times at the same repetition rate of 17/s. […]
N-acetyl-L-cysteine (L-NAC; Sigma) or taurine (Sigma) was administrated to pregnant Pjvk^−/− mice in the drinking water. A daily dose of 1% L-NAC or 2% taurine was given to the mother during and after pregnancy, so that pups received them from birth on by feeding on the mother's milk. The treatment was continued until P21, and the auditory function of the treated Pjvk^−/− pups was tested at P21.

[1] = tested on: Pjvk−/− mice (OHC function); assay: Distortion-product otoacoustic emissions (DPOAE) in Pjvk−/− mice; assay type: in vivo, mouse; conditions: antioxidant-treated Pjvk−/− pups, around P21
Procedure: as §1, with “DPOAE threshold was defined as the smallest primary level giving rise to a detectable DPOAE.” left out, “A hundred responses to the tone bursts were averaged except within 10 dB of the ABR threshold (defined as the smallest tone-burst level giving rise to at least one repeatable wave above noise background level, 150 nV in an anesthetized animal), for which 300 tone bursts were used.” left out, “latencies.” for “latencies. Controlled sound exposure was applied with the same acoustic probe used for ABRs without moving the sound system, so that pre- and post-exposure ABRs shared the same calibration. Intense stimuli were the same tone-bursts used for ABR measurements at 105 dB SPL, presented 1,000 times at the same repetition rate of 17/s.”

[2] = tested on: Pjvk−/− mice (auditory neurons); assay: Electrically-evoked brainstem responses (EEBR) with controlled electrical stimulation in Pjvk−/− mice; assay type: in vivo, mouse; conditions: for EEBR wave E IV amplitude / resistance to high-rate electrical stimulation: 200/s for 1 minute, treated Pjvk−/− mice
Source text: Electrical stimulations of the eighth cranial nerve were delivered by a silver electrode placed in the round-window niche and excited by biphasic electrical impulses (neutral electrode in neck muscles; peak amplitude of electrical stimulus about 0.5 V; duration of the positive and negative phases 150 microseconds; adjustable repetition rate). EEBRs were extracted using the same setup as for ABRs (Roux et al., 2006), in response to 100 electrical impulses presented with alternating polarities (repetition rate 17 Hz). EEBR threshold was defined as the smallest electrical amplitude eliciting repeatable waves above noise background level (the same as for ABRs), labelled from E II to E IV in reference to their ABR equivalents II-IV. Controlled electrical stimulation was applied at 5 dB above EEBR detection threshold with a 200 Hz repetition rate. Occasionally, the silver electrode on the round window served for recording Compound Action Potentials (CAPs) in response to the same tone-bursts used for ABR studies (averages of 32 presentations, repetition rates 17/s), prior to EEBR data collection. These recordings served to check that CAP thresholds and ABR thresholds were within 2 dB of each other at all frequencies, and the exact position of ABR wave I could be ascertained form the larger wave N1, its equivalent on CAP recordings. This was particularly important in mice with abnormally small wave I to avoid incorrect identifications (when wave I was reduced to a very small flattened deflection resembling a summating potential, the slightly larger wave II might have been mistakenly labelled wave I on ABR recordings, while wave N1, even when small, kept its characteristic shape).
Intracochlear viral transduction was carried out as described by Akil et al. (2012). […]
Which cells are the targets of the pejvakin defect, and are they all hypervulnerable to sound exposure? […] Moreover, Electrically-Evoked Brainstem Responses (EEBR) to a direct electric stimulation of the auditory neurons, which test the response of the auditory pathway beyond the cochlea, was also analysed. […]

[3] = tested on: mouse embryonic fibroblasts; assay: H2O2-induced peroxisome proliferation in mouse embryonic fibroblasts; assay type: cell-based
Procedure: Fibroblasts were isolated from mouse embryos at embryonic day 13.5 and cultured as described by Xu (2005). The cells were incubated in DMEM (Gibco) supplemented with 0.1 mM β-mercaptoethanol, and 0.5 mM H2O2 for 4 hours at 37° C., under normoxic conditions (95% air). The culture medium was then replaced with H2O2-free medium. Cell viability was checked 18 hours after H2O2 treatment, by measuring mitochondrial reductase activity with the MTT (3-(4,5-dimethylthiazol-2-yl)-2,5-diphenyl tetrazolium bromide) (Sigma M2128) assay. A polyclonal antibody against peroxisome membrane protein 70 (PMP70, Abcam ab3421) was used to label peroxisomes.

[4] = antioxidant-treated Pjvk−/− mice, P21

SMILES | protective effect on IHCs and neurons (Pjvk−/− mice; Pjvk−/− mice) | number of auditory neurons that responded to sound stimulation in synchrony (Pjvk−/− mice; Pjvk−/− pups treated via mother's milk) | ABR threshold at 10 kHz (Pjvk−/− mice; antioxidant via mother's drinking water/milk, Pjvk−/− pups tested around P21) | ABR wave I amplitude (in words) (Pjvk−/− mice; [4]) | ABR wave I latency (Pjvk−/− mice; [4]) | amplitude of ABR wave I in response to 105 dB SPL (Pjvk−/− mice; [4]) | ABR interwave I-IV latency (Pjvk−/− mice; antioxidant-treated Pjvk−/− pups, P21) | ABR thresholds (recovery) (Pjvk−/− mice; antioxidant-treated vs untreated Pjvk−/− pups, P21, listed as NAC) | recovery of ABR wave I latency and ABR interwave I-IV (Pjvk−/− mice; P21) | effect on OHCs (DPOAE) [1] | EEBR wave E IV amplitude / resistance to high-rate electrical stimulation [2] | EEBR wave E IV amplitude / resistance to high-rate electrical stimulation ([2]; listed as NAC) | recovery of neuronal function after high-rate electrical stimulation ([2]; 5 min after high-rate exposure) | increase in number of peroxisomes after H2O2 treatment, Pjvk+/+ fibroblasts ([3]; 0.5 mM H2O2, Pjvk+/+ MEFs) | number of peroxisomes after H2O2 treatment, Pjvk−/− fibroblasts ([3]; 0.5 mM H2O2, Pjvk−/− MEFs)
CC(=O)N[C@@H](CS)C(=O)O [N-acetyl cysteine, N-acetyl-L-cysteine] | moderate protective effect | restored | 72.2±9.3 dB SPL | fell within the normative range | 1.55 ± 0.18 ms | 4.35±1.16 μV | 2.91 ± 0.32 ms | slight recovery; also recorded: slightly improved | no significant recovery | no beneficial effect on OHCs | resisted to high-rate electric stimulation of auditory pathways better than untreated | remained unaffected | Full recovery of neuronal function |  | 
OO [H2O2] |  |  |  |  |  |  |  |  |  |  |  |  |  | 46% | remained unchanged
NCCS(=O)(=O)O [taurine] |  |  |  |  |  |  |  |  | no significant recovery | no beneficial effect on OHCs |  |  |  |  | 
